Measured values taken from patent publication US20200171166A1, “GEL COMPOSITION AND METHOD FOR PRODUCING GEL COMPOSITION” (Shimadzu Corporation, priority 2015, published 2020).

System: three-dimensional cultured corneal epithelium model from human normal corneal epithelium cells (LabCyte CORNEA-MODEL)
Experiment: Irritativeness test using a cornea model (WST-8 assay)
Assay type: cell-based
Conditions: exposure to 50 μL of test substance
Method: Prepared as test substances were hydrogels made under the same conditions as in the above preparation examples 3A to 3C (prepared from methanol gel, ethanol gel, and 2-butanol gel, respectively); solution in which 611 mg of NMP was added to 500 mg of PLGA; NMP; and distilled water (negative reference). A standard protocol was followed using a three-dimensional cultured corneal epithelium model from human normal corneal epithelium cells (J-TEC, LabCyte CORNEA-MODEL), and exposure tests were carried out on 50 μL of the test substances. Using a WST-8 assay kit (Dojin Chemical, product code: CK04), following the exposure test, a WST-8 assay was done on the samples, the OD value was measured with a plate reader (TECAN, Infinite 200 Pro), and the relative survival rate (proportion of live cells) was calculated for the negative object (distilled water).

Compound: CN1CCCC1=O [NMP, N-methyl pyrrolidone]
- irritativeness toward the cornea: strong
